Reference: ChEMBL document CHEMBL4402557, “Nidufexor (LMB763), a Novel FXR Modulator for the Treatment of Nonalcoholic Steatohepatitis” (J Med Chem, 2020)
Active and inactive are the calls of the source. The calls are words filed in the database; no cut-off is given here.

What was measured:
Rattus norvegicus [1] = assay: In-vivo agonist activity at FXR in orally dosed Han Wistar rat assessed as upregulation of SHP mRNA level in ileum administered via oral gavage once daily for 14 days measured post last dose by qRT-PCR analysis; type: functional, organism-based
[2] = Half life in Wistar rat at 3 mg/kg, iv; type: ADME, organism-based; details: in vivo
[3] = target: T1, Nuclear receptor subfamily 1 group I member 2 (Homo sapiens, UniProt O75469); assay: Agonist activity at PXR (unknown origin) incubated for 2 hrs by TR-FRET assay
T1 sequence (O75469 whole entry): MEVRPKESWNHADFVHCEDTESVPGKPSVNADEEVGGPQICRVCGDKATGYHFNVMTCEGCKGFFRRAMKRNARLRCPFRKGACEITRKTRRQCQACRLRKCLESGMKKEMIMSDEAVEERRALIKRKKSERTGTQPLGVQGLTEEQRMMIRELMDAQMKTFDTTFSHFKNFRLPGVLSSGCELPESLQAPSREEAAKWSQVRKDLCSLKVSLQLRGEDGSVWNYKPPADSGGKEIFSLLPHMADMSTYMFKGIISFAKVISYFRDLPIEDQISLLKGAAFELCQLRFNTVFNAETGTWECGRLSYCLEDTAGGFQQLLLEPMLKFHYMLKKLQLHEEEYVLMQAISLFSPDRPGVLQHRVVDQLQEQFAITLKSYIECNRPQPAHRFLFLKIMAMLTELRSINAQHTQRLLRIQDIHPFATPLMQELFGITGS

[4] = AUC in Wistar rat at 10 mg/kg, po; type: ADME, organism-based; details: in vivo
[5] = AUC in Wistar rat at 30 mg/kg, po; type: ADME, organism-based; details: in vivo
[6] = Oral bioavailability in Wistar rat at 10 mg/kg in presence of TRIS salt; type: ADME, organism-based; details: in vivo
[7] = AUC in Wistar rat at 3 mg/kg, po; type: ADME, organism-based; details: in vivo
Mus musculus [8] = assay: Anti Steato-hepatitic activity in STZ/HFD induced C57BL/6J mouse STAM model assessed as reduction in fibrosis at 3 to 30 mg/kg, po administered via oral gavage once daily for 3 weeks and measured on 9 week by Picro-Sirius Red staining based assay; type: functional, organism-based
Rattus norvegicus [9] = assay: In-vivo agonist activity at FXR in orally dosed Han Wistar rat assessed as upregulation of SHP mRNA level in liver administered via oral gavage once daily for 14 days measured post last dose by qRT-PCR analysis; type: functional, organism-based
[10] = Ratio of AUC in Brain to plasma in Wistar rat […] at 10 mg/kg, po; type: ADME, organism-based; details: read-out: Ratio AUC
[11] = Permeability of the compound by PAMPA; type: ADME
[12] = target: T2, Peroxisome proliferator-activated receptor gamma (Homo sapiens, UniProt P37231); assay: Agonist activity at PPARgamma (unknown origin) incubated for 2 hrs by TR-FRET assay
T2 sequence (P37231 whole entry): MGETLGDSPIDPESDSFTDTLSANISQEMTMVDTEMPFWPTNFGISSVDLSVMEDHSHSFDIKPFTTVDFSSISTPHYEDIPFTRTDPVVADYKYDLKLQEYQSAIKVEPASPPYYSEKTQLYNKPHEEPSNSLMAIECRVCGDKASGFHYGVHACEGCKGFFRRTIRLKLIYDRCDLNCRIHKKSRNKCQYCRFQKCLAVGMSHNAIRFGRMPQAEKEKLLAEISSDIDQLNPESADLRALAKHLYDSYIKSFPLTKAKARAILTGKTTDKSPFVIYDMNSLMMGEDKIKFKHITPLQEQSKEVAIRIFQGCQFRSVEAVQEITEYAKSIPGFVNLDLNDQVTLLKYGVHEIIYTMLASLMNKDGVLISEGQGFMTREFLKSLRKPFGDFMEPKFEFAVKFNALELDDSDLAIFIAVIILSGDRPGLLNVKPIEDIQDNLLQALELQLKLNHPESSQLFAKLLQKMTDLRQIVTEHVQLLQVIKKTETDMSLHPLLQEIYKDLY

[13] = target: T3, Bile acid receptor (Rattus norvegicus) (UniProt Q62735); assay: Agonist activity at FXR in rat primary hepatocytes assessed as increase in BSEP mRNA level incubated for 24 hrs by qRT-PCR analysis relative to tropifexor; type: cell-based
T3 sequence (whole entry): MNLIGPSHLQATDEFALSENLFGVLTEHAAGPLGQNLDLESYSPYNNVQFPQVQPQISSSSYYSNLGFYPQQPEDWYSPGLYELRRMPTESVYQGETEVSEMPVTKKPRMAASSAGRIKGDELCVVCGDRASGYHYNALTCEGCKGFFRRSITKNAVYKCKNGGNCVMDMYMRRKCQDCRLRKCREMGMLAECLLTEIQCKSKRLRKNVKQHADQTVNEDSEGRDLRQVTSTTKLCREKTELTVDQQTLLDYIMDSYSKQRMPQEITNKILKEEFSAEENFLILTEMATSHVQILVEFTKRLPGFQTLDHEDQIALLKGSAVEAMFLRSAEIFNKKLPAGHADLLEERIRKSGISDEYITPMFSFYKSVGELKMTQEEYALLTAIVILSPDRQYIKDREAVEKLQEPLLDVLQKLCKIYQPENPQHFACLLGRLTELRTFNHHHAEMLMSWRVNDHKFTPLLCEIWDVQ

Estrogen receptor = target: T4, Estrogen receptor (Homo sapiens, UniProt P03372); assay: Agonist activity at GAL4-fused ERalpha (unknown origin) expressed in HEK293T cells incubated for 24 by BrightGlo reagent based assay; type: cell-based
T4 sequence (P03372 whole entry): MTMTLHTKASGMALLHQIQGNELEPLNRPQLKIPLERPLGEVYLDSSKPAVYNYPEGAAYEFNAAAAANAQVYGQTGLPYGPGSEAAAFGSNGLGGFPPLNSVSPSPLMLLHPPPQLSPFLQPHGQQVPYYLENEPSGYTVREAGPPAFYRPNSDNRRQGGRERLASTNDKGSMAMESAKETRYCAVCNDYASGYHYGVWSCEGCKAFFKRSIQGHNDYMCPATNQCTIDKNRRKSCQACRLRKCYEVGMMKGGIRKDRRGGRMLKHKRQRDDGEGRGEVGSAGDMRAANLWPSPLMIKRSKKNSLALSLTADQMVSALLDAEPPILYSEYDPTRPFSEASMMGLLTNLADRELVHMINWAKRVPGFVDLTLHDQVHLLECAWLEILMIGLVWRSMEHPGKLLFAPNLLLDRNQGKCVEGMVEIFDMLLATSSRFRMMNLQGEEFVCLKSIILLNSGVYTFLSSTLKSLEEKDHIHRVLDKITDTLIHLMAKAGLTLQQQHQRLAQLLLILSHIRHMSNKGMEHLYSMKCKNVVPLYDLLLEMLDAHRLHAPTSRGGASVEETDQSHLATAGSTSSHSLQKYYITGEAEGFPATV

Mus musculus [14] = species on record: Mus musculus; assay: Anti Steato-hepatitic activity in C57BL/6J mouse STAM model assessed as change in Cyp8b1 gene level in liver; type: functional, organism-based
Mus musculus [15] = assay: Anti Steato-hepatitic activity in STZ/HFD induced oral dosed C57BL/6J mouse STAM model assessed as reduction in macrovesicular fat deposition administered via oral gavage once daily for 3 weeks and measured on 9 week by H and E staining based assay; type: functional, organism-based
[16] = Half life in Wistar rat at 100 mg/kg, po; type: ADME, organism-based; details: in vivo

half-life [2]: 3 h
EC50 [3]: > 30 µM
AUC [4]: 25.4 µM·h
AUC [5]: 76.5 µM·h
bioavailability [6]: 52%
AUC [7]: 9.2 µM·h
Kp [10]: 0.05
permeability [11]: 94%
EC50 [12]: > 30 µM
EC50 (Estrogen receptor): > 10 µM
half-life [16]: 5.6 h
Compound: Cn1nc(C(=O)N(Cc2ccccc2)Cc2ccc(C(=O)O)cc2)c2c1-c1cc(Cl)ccc1OC2 [NIDUFEXOR]
Activity (Rattus norvegicus [1]): Dose-dependent effect
Activity (Mus musculus [8]): Active
Activity (Rattus norvegicus [9]): Dose-dependent effect
Activity [13]: 3.7%
Activity (Mus musculus [14]): Active
Activity (Mus musculus [15]): Dose-dependent effect
